Assay results taken from patent US6143726A, “Complexes of N'-dimethylaminoacetylpartricin A dimethylaminoethylamide, or the salts thereof, and cholesterol 3-sulphate” (priority 1996, dated 2000).

What was measured:
[1] = compared with partricin; cited from earlier work
[2] = Acute toxicity test (i.v. administration in mice), LD50 by Probit method; assay type: in vivo; conditions: i.v. into tail vein, male mice, 15 days observation
Method: Groups of 5 […] male mice, of 4 weeks of age and weighing 14-18 g, starved overnight before trial, were treated with serial doses of the SPA-S-753-cholesterol sulphate complex (prepared as described in Example 1) and with the not complexed SPA-S-753 for comparison. The two products, dissolved in 5% glucose solution and diluted to the required concentrations, were injected by i.v. route into a tail vein, at a constant volume of 2 ml/kg and over the time of 30-40 seconds. The animals were then kept under observation for 15 days, while changes in behaviour and mortality were recorded.

[3] = cited from earlier work
[4] = Pharmacokinetics test (i.v.): serum and kidney concentrations, microbiological determination; assay type: in vivo, Sprague-Dawley rats; conditions: 2 hours after single i.v. dose equivalent to 1.25 mg/kg
Method: Two groups of 5 Sprague-Dawley male rats were treated by i.v. route with a single dose equivalent to 1.25 mg/kg of SPA-S-753-cholesterol sulphate complex and of not complexed SPA-S-753 for comparison, with a method similar to that described above. 2 hours following treatments the animals were killed, and the serum and kidneys were collected according to the ordinary procedures. The antibiotic was determined by the microbiological method on the pooled serums and organ homogenates from the 2 groups, the Saccharomyces cerevisiae growth inhibition zones being measured against those produced by antibiotic standard solutions (PYG-agar medium, incubation of 18 h at 30° C.). The antibiotic concentrations found were as follows: 2.6 μg/ml in serum and 4.0 μg/g in the case of SPA-S-753 alone, and 2.4 μg/ml in serum and 0.8 μg/g in the kidneys in the case of SPA-S-753-cholesterol sulphate complex.

[5] = Precipitation at the site of injection after intramuscular administration and tolerance; assay type: in vivo

In the case of “N'-dimethylaminoacetylpartricin A dimethylaminoethylamide diaspartate [SPA-S-753]”, the toxicity [1] is given as “definitely much lower than that of partricin”, the “acute toxicity index, lethal dose in 50% of the animals (LD50)” value [2] is given as 46 to 64 mg/kg and the water-solubility [3] is given as “high water-solubility”. The “antibiotic concentration in kidneys” value ([4]; organ homogenates) was 4.0 µg/g, the “antibiotic concentration in serum” value ([4]; pooled serum) was 2.6 µg/mL and the “precipitation on intramuscular administration” value [5] was “partial precipitation”. The tolerance ([5]; systemic and local, versus uncomplexed SPA-S-753) was “negative influence on tolerance of the product”.
